PMC12040169 (PLOS Biology, 2025)

Assay: in vitro
Conditions: human, hela cells, % viability

Row | SMILES | viability at 28.5 h, 10 µM [%]
1 | O=C1COc2ccccc2C/C=C/CC2(CCN(C(=O)CCn3ccnc3)CC2)CN1 [CBK292131] | 102
2 | O=C1CNC(=O)C2(C/C=C/C[C@H]3COCC[C@@H]3N1)CCN(Cc1ccc(Cl)cn1)CC2 [CBK292132] | 91
3 | CC(=O)N1CCC[C@H]2NC(=O)CNC(=O)C3(C/C=C/C[C@H]21)CCN(CC(N)=O)CC3 [CBK292135] | 84.4
4 | O=C1CNC(=O)C2(C/C=C/C[C@H]3COCC[C@@H]3N1)CCN(CC(=O)N1CCCCC1)CC2 [CBK292137] | 111
5 | CC(=O)N1CCC2(C/C=C/C[C@H]3CN(CCO)CC[C@H]3NC(=O)CNC2=O)CC1 [CBK292139] | 92.8
6 | CC(=O)N1CCC2(C/C=C/C[C@H]3CN(CCCc4ccccc4)CC[C@H]3NC(=O)CNC2=O)CC1 [CBK292140] | 90.9
7 | CC(=O)N1CC[C@H]2NC(=O)CNC(=O)C3(CCCC[C@H]2C1)CCNCC3 [CBK292142] | 93.8
8 | COCCN1CCC2(C/C=C/C[C@H]3COCC[C@H]3NC(=O)CNC2=O)CC1 [CBK292145] | 116
9 | CCC(=O)N1CCC2(CCCC[C@H]3CN(C(C)=O)CC[C@H]3NC(=O)CNC2=O)CC1 [CBK292147] | 96.6
10 | CN1C(=O)COc2ccccc2CCCC[C@@H]2[C@H]1CCCN2C(=O)Cn1ccnc1 [CBK292152] | 110
11 | Cc1nn(C)cc1C(=O)N1CCC2(C/C=C/CCOc3ccccc3C(=O)NCCCNC2=O)CC1 [CBK292154] | 110
12 | CN1C(=O)COc2ccccc2C/C=C/C[C@H]2NCCC[C@H]21 [CBK292156] | 80.9
13 | CC(C)C(=O)N1CCC2(C/C=C/C[C@H]3COCC[C@H]3NC(=O)CNC2=O)CC1 [CBK292157] | 95.8
14 | COCC(=O)N1CCC2(C/C=C/C[C@H]3COCC[C@@H]3NC(=O)CNC2=O)CC1 [CBK292158] | 95.2
15 | O=C1NCC2(C/C=C/CCOc3ccccc31)CCN(Cc1ccccn1)CC2 [CBK292159] | 84.2
16 | O=C1N[C@H]2CCCN(C(=O)CCN3CCCC3)[C@H]2C/C=C/CCOc2ccccc21 [CBK292162] | 112
17 | CC(=O)N1CCC2(CCCC[C@H]3CN(Cc4coc(C)n4)CC[C@@H]3NC(=O)CNC2=O)CC1 [CBK292165] | 101
18 | CC(=O)N1CCC2(CCCC[C@H]3CNCC[C@@H]3NC(=O)CNC2=O)CC1 [CBK292167] | 91.7
19 | CN1C(=O)COc2ccccc2C/C=C/C[C@@H]2[C@H]1CCCN2C(=O)CCCNc1ncccn1 [CBK292168] | 112

Row | SMILES | viability at 28.5 h, 10 µM [%]
20 | O=C1NCCNC(=O)C2(C/C=C/COc3ccccc31)CCCNC2 (centres unmarked) [CBK292171] | 115
21 | CC(=O)N1CCC[C@H]2NC(=O)CNC(=O)C3(C/C=C/C[C@H]21)CCNCC3 [CBK292173] | 89.8
22 | CC(=O)N1CCC[C@H]2NC(=O)CNC(=O)C3(C/C=C/C[C@H]21)CCN(C(=O)C1CCC1)CC3 [CBK292177] | 109
23 | O=C1NCC2(C/C=C/CCOc3ccccc31)CCNCC2 [CBK292178] | 104
24 | Cn1ccnc1CN1CCC2(C/C=C/Cc3ccccc3OCC(=O)NCCNC2=O)CC1 [CBK292180] | 95.7
25 | CNCC(=O)N1CCC2(CCCC[C@H]3CN(C(C)=O)CC[C@H]3NC(=O)CNC2=O)CC1 [CBK292181] | 79.3
26 | Cn1nccc1C(=O)N1CCC2(C/C=C/COc3ccccc3C(=O)NC[C@@H](Cc3ccccc3)NC2=O)CC1 [CBK292183] | 99.8
27 | CN(C)C(=O)CN1CCC2(C/C=C/COc3ccccc3C(=O)NC[C@@H](Cc3ccccc3)NC2=O)CC1 [CBK292185] | 107
28 | O=C1N[C@@H]2CCN(Cc3cnccn3)C[C@H]2C/C=C/CC2(CCOCC2)C(=O)N[C@H]1Cc1ccccc1 [CBK292189] | 97.3
29 | CC(=O)N[C@@H](CC[S+](C)[O-])C(=O)N1CCC2(C/C=C/C[C@@H]3COCC[C@@H]3NC(=O)[C@@H](CC(C)C)NC2=O)CC1 (some centres unmarked) [CBK292192] | 105
30 | COc1ccc(C(=O)N2CCC[C@H]3NC(=O)COc4ccccc4C(=O)N[C@@H]4CCOC[C@@H]4C/C=C/C[C@@H]32)cc1 [CBK292194] | 102
31 | CC(=O)N1CCC[C@@H]1C(=O)N1CC[C@@H]2NC(=O)[C@H](Cc3ccccc3)NC(=O)C3(C/C=C/C[C@@H]2C1)CCOCC3 [CBK292195] | 104
32 | CC(C)C[C@H]1NC(=O)C2(C/C=C/C[C@@H]3COCC[C@@H]3NC1=O)CCN(C(=O)[C@@H](N)Cc1c[nH]c3ccccc13)CC2 [CBK292200] | 109
33 | CC(C)[C@@H](N)C(=O)N1CC[C@@H]2NC(=O)[C@@H](Cc3ccccc3)NC(=O)C3(C/C=C/C[C@H]2C1)CCOCC3 [CBK292201] | 112
34 | N[C@@H](Cc1c[nH]c2ccccc12)C(=O)N1CC[C@H]2NC(=O)[C@@H](Cc3ccccc3)NC(=O)C3(C/C=C/C[C@@H]2C1)CCOCC3 [CBK292202] | 115
35 | CC(=O)N[C@@H](Cc1c[nH]cn1)C(=O)N1CC[C@H]2NC(=O)[C@H](Cc3ccccc3)NC(=O)C3(C/C=C/C[C@H]2C1)CCOCC3 [CBK292206] | 116
36 | COCCOC(=O)C1=C(C)NC2=C(C(=O)CC(c3ccc(OC)cc3)C2)C1c1ccc(F)cc1 (centres unmarked) [CBK293921] | 88.9
37 | COc1ccc(C2CC(=O)C3=C(C2)NC(C)=C(C#N)C3c2cccc(F)c2)cc1 (centres unmarked) [CBK293922] | 91.6
38 | O=C(COC(=O)c1cc(-c2ccc(Cl)cc2)nc2ccccc12)c1cccc([N+](=O)[O-])c1 [CBK293923] | 83
